Laboratory results published in patent US6677355B1, “Hydroxamic acid compounds useful as matrix metalloproteinase inhibitors” (Warner-Lambert Company, priority 1999, dated 2004).

Key:
[1] = molecular target: T1, MMP-3CD (stromelysin-1 catalytic domain) (Homo sapiens, UniProt P08254); assay: MMP-3CD inhibition, thiopeptolide substrate hydrolysis; assay type: biochemical; conditions: average where multiple samples assayed
T1 construct: MMP-3CD (stromelysin-1 catalytic domain); made in house; host or cells: Escherichia coli
Experimental: (§1) The compounds were evaluated in order to determine their respective IC50 values, i.e., the micromolar concentration of compound required to achieve a 50% inhibition of the hydrolytic activity of the respective enzymes.
(§2) Experiments were carried out with the full-length (“FL”) and/or catalytic domains (“CD”) of the proteinases. […] IC50 values were determined using a thiopeptolide substrate, Ac-Pro-Leu-Gly-thioester-Leu-Leu-Gly-OEt (Ye Q.-Z., Johnson L. L., Hupe D. J., and Baragi V., “Purification and Characterization of the Human Stromelysin Catalytic Domain Expressed in Escherichia coli,” Biochemistry, 1992;31:11231-11235; Ye Q.-Z., Johnson L. L., Yu A. E., and Hupe D., “Reconstructed 19 kDa Catalytic Domain of Gelatinase A IAAP,” Biochemistry, 1995;34:4702-4708.)
(§3) The tested MMPs are available to those skilled in the art. For example, MMP-1 can be obtained from Washington University School of Medicine, St. Louis, Mo. MMP-7 can be obtained in accordance with the known procedure set forth by Ye Q. Z., Johnson L. L., and Baragi V., “Gene Syntheses and Expression in E. coli for PUMP, a Human Matrix Metalloproteinase,” Biochem. and Biophys. Res. Comm., 1992;186:143-149. MMP-13 can be obtained in accordance with the known procedure set forth by Freije J. M. P. et al., “Molecular Cloning and Expression of Collagenase-3, a Novel Human Matrix Metalloproteinase Produced by Breast Carcinomas,” J. Bio. Chem., 1994;269:16766-16773. MMP-13CD can also be expressed from a synthetic gene and purified from Escherichia coli cell culture according to a previously described method (Ye Q.-Z., Johnson L. L., and Baragi V., “Gene Synthesis and Expression in E. coli for PUMP, a Human Matrix Metalloproteinase,” Biochemical and Biophysical Research Communications, 1992;186:143-149). Hydrolysis of the thiopeptolide substrate Ac-Pro-Leu-Gly-thioester-Leu-Leu-Gly-OEt (Bachem) was used as the primary screen to determine IC50 values for MMP inhibitors. A 100 μL reaction contains 1 mM 5,5′-dithiobis(2-nitrobenzoic acid) (DTNB), 100 μM substrate, 0.1% BRIJ® 35, PROTEIN GRADE®, Detergent, 10% solution, Sigma, St. Louis, Mo. [polyoxyethyleneglycol dodecyl ether; polyoxyethylene (23) lauryl ether], enzyme, and inhibitor in the appropriate reaction buffer. Activated full-length enzymes are assayed at 5 nM, Stromelysin Catalytic Domain (SCD) at 10 nM, and Gelatinase A Catalytic Domain (GaCD) at 1 nM. Inhibitors are screened from 100 μM to 1 nM. Full-length enzymes (e.g., MMP-1 and MMP-7) are assayed in 50 mM 4-(2-[…])-piperazine-1-ethane sulfonic acid (HEPES), 10 mM CaCl2, pH 7.0; SCD in 50 mM 2-morpholinoethane sulfonic acid monohydrate (MES), 10 mM CaCl2, pH 6.0; and GaCD in 50 mM 3-morpholtriopropane sulfonic acid (MOPS), 10 mM CaCl2, 10 μM ZnCl2, pH 7.0. The change in absorbance at 405 nanometers is monitored on a ThermoMax microplate reader at room temperature continuously for 20 minutes.
(§4) The number in parenthesis indicates the number of samples assayed.

[2] = molecular target: T2, MMP-1FL (collagenase-1 full-length enzyme) (Homo sapiens, UniProt P03956); assay: MMP-1FL inhibition, thiopeptolide substrate hydrolysis; assay type: biochemical; conditions: average where multiple samples assayed
T2 construct: purchased Washington University School of Medicine, St. Louis, Mo
T2 sequence (P03956 100-469): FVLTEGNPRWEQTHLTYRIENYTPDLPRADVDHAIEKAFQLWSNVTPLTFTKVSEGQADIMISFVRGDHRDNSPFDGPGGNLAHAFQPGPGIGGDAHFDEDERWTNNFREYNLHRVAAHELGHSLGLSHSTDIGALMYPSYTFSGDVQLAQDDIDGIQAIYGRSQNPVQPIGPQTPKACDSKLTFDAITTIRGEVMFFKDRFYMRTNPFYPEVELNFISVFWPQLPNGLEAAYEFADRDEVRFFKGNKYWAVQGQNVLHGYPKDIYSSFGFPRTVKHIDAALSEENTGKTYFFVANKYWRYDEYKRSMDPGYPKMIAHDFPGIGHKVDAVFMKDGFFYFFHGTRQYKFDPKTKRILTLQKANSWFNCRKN
Experimental: as §1, §2, §3, §4

[3] = molecular target: T3, MMP-14CD (membrane-type MMP-1 catalytic domain) (Homo sapiens, UniProt P50281); assay: MMP-14CD inhibition, thiopeptolide substrate hydrolysis; assay type: biochemical; conditions: average where multiple samples assayed
T3 construct: MMP-14CD (membrane-type MMP-1 catalytic domain)
Experimental: as §1, §2, §3, §4

[4] = molecular target: T4, MMP-2FL (gelatinase A full-length enzyme) (Homo sapiens, UniProt P08253); assay: MMP-2FL inhibition, thiopeptolide substrate hydrolysis; assay type: biochemical; conditions: average where multiple samples assayed
T4 sequence (P08253 110-660): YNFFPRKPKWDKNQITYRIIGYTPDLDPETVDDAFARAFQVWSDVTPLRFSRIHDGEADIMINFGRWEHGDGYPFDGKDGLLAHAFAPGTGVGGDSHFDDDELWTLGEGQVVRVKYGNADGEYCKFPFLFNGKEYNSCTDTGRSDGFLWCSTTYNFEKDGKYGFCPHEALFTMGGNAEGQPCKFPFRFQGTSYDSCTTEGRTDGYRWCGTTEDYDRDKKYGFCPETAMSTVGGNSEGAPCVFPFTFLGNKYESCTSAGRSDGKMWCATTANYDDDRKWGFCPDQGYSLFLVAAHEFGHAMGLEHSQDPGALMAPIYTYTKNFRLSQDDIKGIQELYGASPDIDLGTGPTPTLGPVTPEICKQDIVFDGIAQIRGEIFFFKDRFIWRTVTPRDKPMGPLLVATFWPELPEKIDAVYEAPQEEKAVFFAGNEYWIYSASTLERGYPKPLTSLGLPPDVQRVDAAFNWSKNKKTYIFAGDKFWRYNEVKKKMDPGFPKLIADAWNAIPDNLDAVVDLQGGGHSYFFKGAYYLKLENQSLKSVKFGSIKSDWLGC
Experimental: as §1, §2, §3, §4

[5] = molecular target: MMP-2CD (gelatinase A catalytic domain) (Homo sapiens, UniProt P08253); assay: MMP-2CD inhibition, thiopeptolide substrate hydrolysis; assay type: biochemical; conditions: average where multiple samples assayed
Experimental: as §1, §2, §3, §4

[6] = molecular target: MMP-9FL (gelatinase B full-length enzyme) (Homo sapiens, UniProt P14780); assay: MMP-9FL inhibition, thiopeptolide substrate hydrolysis; assay type: biochemical; conditions: average where multiple samples assayed
Experimental: as §1, §2, §3, §4

[7] = molecular target: T5, MMP-13CD (collagenase-3 catalytic domain) (Homo sapiens, UniProt P45452); assay: MMP-13CD inhibition, thiopeptolide substrate hydrolysis; assay type: biochemical; conditions: average where multiple samples assayed
T5 construct: MMP-13CD (collagenase-3 catalytic domain); made in house; host or cells: Escherichia coli
Experimental: as §1, §2, §3, §4

[8] = molecular target: T6, MMP-7FL (matrilysin full-length enzyme) (Homo sapiens, UniProt P09237); assay: MMP-7FL inhibition, thiopeptolide substrate hydrolysis; assay type: biochemical; conditions: average where multiple samples assayed
T6 construct: made in house; host or cells: E. coli
T6 sequence (P09237 95-267): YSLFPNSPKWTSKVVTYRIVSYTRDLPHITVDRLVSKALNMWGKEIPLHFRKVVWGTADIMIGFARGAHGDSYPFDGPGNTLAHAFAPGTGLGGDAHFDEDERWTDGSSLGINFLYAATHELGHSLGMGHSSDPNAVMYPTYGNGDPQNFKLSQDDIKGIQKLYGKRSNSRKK
Experimental: as §1, §2, §3, §4

Chain of MMP-9FL (gelatinase B full-length enzyme) (P14780 107-707 limits assumed, species assumed): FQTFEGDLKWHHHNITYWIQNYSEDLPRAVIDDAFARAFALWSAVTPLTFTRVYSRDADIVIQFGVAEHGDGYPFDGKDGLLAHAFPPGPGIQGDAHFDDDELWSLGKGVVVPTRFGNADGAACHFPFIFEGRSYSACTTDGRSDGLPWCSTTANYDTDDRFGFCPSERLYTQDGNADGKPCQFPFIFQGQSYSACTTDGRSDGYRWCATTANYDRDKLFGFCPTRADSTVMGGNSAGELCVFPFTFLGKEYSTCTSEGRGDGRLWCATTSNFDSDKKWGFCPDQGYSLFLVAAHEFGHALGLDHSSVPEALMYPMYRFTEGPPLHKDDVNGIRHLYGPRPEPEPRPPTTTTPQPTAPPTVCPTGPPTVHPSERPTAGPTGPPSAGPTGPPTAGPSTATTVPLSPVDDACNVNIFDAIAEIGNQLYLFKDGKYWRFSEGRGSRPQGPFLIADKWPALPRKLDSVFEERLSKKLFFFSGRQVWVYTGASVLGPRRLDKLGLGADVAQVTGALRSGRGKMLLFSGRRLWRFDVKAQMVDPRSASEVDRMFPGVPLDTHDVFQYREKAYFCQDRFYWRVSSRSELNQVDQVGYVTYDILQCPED
Chain of MMP-2CD (gelatinase A catalytic domain) (P08253 with tags, fused parts or gaps DEL220-393): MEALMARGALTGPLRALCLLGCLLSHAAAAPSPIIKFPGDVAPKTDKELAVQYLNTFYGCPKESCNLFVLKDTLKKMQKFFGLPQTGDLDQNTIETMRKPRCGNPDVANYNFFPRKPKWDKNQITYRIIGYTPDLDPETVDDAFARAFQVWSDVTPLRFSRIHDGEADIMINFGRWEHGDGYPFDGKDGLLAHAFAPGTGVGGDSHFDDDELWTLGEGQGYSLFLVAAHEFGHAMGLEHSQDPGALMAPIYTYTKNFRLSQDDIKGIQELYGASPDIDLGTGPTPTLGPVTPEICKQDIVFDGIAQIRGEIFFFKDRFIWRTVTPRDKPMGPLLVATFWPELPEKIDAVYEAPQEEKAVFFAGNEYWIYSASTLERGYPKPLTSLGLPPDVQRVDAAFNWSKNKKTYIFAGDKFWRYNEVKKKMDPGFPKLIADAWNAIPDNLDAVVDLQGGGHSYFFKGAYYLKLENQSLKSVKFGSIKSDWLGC
T1 sequence (P08254 100-272 limits assumed): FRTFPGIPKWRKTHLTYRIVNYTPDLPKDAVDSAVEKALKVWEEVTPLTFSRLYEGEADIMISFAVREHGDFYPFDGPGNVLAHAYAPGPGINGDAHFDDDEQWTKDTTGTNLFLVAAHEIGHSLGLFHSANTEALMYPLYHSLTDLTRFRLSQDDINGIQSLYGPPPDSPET

Compound	IC50 [1]	IC50 [2]	IC50 [3]	IC50 [4]	IC50 [5]	IC50 [6]	IC50 [7]	IC50 [8]	melting point
CC(C)(NS(=O)(=O)c1ccc2c(c1)oc1ccccc12)C(=O)NO [Example 30, 2-(Dibenzofuran-3-sulfonylamino)-N-hydroxy-2-methyl-propionamide]	83.5 nM	905 nM	13.5 nM	4.75 nM	4.3 nM	860 nM	105 nM	100000 nM	168 to 169 °C
O=C(NO)C1(NS(=O)(=O)c2ccc3oc4cc(Br)ccc4c3c2)CCCC1 [Example 32, 1-(7-Bromo-dibenzofuran-2-sulfonylamino)-cyclopentane carboxylic acid hydroxamide]	35 nM	5750 nM	340 nM	205 nM	82.7 nM	13000 nM	165 nM	350 nM	
CC(C)(NS(=O)(=O)c1ccc2oc3cc(Cl)ccc3c2c1)C(=O)NO [Example 33, 2-(7-Chloro-dibenzofuran-2 sulfonylamino)-N-hydroxy-2-methyl-propionamide]	43 nM	3050 nM	300 nM	125 nM	81 nM	15000 nM	110 nM	920 nM	
O=C(NO)C1(NS(=O)(=O)c2ccc3c(c2)oc2ccccc23)CCCCC1 [Example 28, 1-(Dibenzofuran-3-sulfonylamino)-cyclohexanecarboxylic acid hydroxyamide]	15.5 nM	295 nM	3.9 nM	4.5 nM	1.7 nM	135 nM	49 nM	4050 nM	184 to 186 °C
O=C(NO)C1(NS(=O)(=O)c2ccc3c(c2)oc2ccccc23)CCOCC1 [Example 31, 4-(Dibenzofuran-3-sulfonylamino)-tetrahydro-pyran-4-carboxylic acid hydroxyamide]	14.7 nM	380 nM	5.75 nM	5.25 nM	2.3 nM	250 nM	48 nM	3000 nM	160 to 162 °C

Stronger by IC50 [1], values ahead:

IC50 [1]	IC50 [2]	IC50 [3]	IC50 [4]	IC50 [5]	IC50 [6]	IC50 [7]	IC50 [8]	melting point	Compound
8.35 nM	8250 nM	22.5 nM	19.8 nM	2.65 nM	11500 nM	450 nM	34000 nM	220 to 224 °C	CC(C)(NS(=O)(=O)c1ccc2c(c1)oc1ccccc12)C(=O)O [Example 29, 2-(Dibenzofuran-3-sulfonylamino)-2-methyl-propionic acid]
9.25 nM	1750 nM	26.5 nM	23 nM	2.7 nM	3700 nM	230 nM	4250 nM	239 to 243 °C	O=C(O)C1(NS(=O)(=O)c2ccc3c(c2)oc2ccccc23)CCCCC1 [Example 27, 1-(Dibenzofuran-3-sulfonylamino)-cyclohexanecarboxylic acid]
